Laboratory results reported in patent publication US20230028441A1, “NOVEL HETEROARYL-TRIAZOLE COMPOUNDS AS PESTICIDES” (Bayer Aktiengesellschaft, priority 2019, published 2023).

Assays:
Format in all cases: in vivo
[1] = tested on: caterpillars of the fall army worm (Spodoptera frugiperda); test: Spodoptera frugiperda spray test (cotton leaves); settings: 168 h
Experimental: Solvent: 14 parts by weight of dimethylformamide
Emulsifier: alkylaryl polyglycol ether
(§1) To produce a suitable preparation of active compound, 1 part by weight of active compound is mixed with the stated amount of solvent and is diluted with water, containing an emulsifier concentration of 1000 ppm, to the desired concentration. Further test concentrations are prepared by dilution with emulsifier containing water. Ammonium salt and/or penetration enhancer in a dosage of 1000 ppm are added to the desired concentration if necessary.
Cotton leaves (Gossypium hirsutum) are treated by being sprayed with the preparation of the active compound of the desired concentration and are infested with caterpillars of the fall army worm (Spodoptera frugiperda).
After 7 days mortality in % is determined. 100% means all the caterpillars have been killed and 0% means none of the caterpillars have been killed.

[2] = tested on: adult cat fleas (Ctenocephalides felis); test: Ctenocephalides felis in-vitro contact test, adult cat flea; settings: 5 μg/cm^2 (=500 g/ha), after 48 hours, read-out: efficacy (fleas dead or moribund)
Outline: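 Efficacy (%) counts fleas that are dead or moribund, meaning unable to escape heat (45-50 °C, ≤5 min) by climbing. Scoring was done 48 h after 5-10 adults were placed at room temperature in glass tubes. The tubes carried a dried acetone film of compound, 5 μg/cm^2 at 900 ppm.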

[3] = tested on: cattle tick larvae (Rhipicephalus microplus), strain Parkhurst, resistant against synthetic pyrethroids; test: Rhipicephalus (Boophilus) microplus in-vitro contact test, larval cattle tick; settings: 5 μg/cm^2 (=500 g/ha), after 48 hours, read-out: efficacy (larvae dead or moribund)
Outline: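 Efficacy, 100% meaning all larvae dead or moribund, was judged at 48 h from loss of negative geotactic climbing. Larvae of the Parkhurst strain, 20–50 per tube, were exposed at 27° C and 85% humidity to acetone-coated tube surfaces; 900 ppm corresponded to 5 μg/cm^2.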

[4] = tested on: larvae of the banded cucumber beetle (Diabrotica balteata); test: Diabrotica balteata spray test; settings: 168 h, after 7 days, wheat seeds, read-out: efficacy (seedlings grown up); for pest or weed control at 32 µg/disc, 100 g/ha: 100 g/ha (=32 μg/well); for pest or weed control at 160 µg/disc, 500 g/ha: 500 g/ha (=160 μg/well)
Outline: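 Efficacy (%) read at day 7: 100% means seedlings grew like untreated, uninfested controls; 0% means no seedlings grew. Wheat seeds germinated 1 day on agar, sprayed with emulsified compound solution (1000 ppm emulsifier in water), then each well infested with 10-20 larvae.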

[5] = tested on: larvae of the southern green stink bug (Nezara viridula); test: Nezara viridula spray test; settings: in Hordeum vulgare, 96 h
Outline: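 Percent mortality of southern green stink bug larvae read 4 days after spraying infested Hordeum vulgare. Test solutions: compound in acetone plus dimethylformamide, diluted with emulsifier-containing water (1000 ppm alkylarylpolyglycol ether).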

[6] = tested on: adult brown dog ticks (Rhipicephalus sanguineus); test: Rhipicephalus sanguineus in-vitro contact test with adult brown dog ticks; settings: after 48 hours, read-out: efficacy (ticks dead or moribund); for pest or weed control at 1 µg/cm2, 100 g/ha: 1 μg/cm^2 (=100 g/ha); for pest or weed control at 5 µg/cm2, 500 g/ha: 5 μg/cm^2 (=500 g/ha)
Outline: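 Efficacy is the percentage of adult ticks dead or moribund, meaning immotile or uncoordinated and unable to escape 45-50° C. heat within 5 min. Read 48 h after 5-10 ticks were enclosed at room temperature in acetone-coated glass tubes. Dose 5 μg/cm^2, from a 900 ppm coating solution.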

[7] = tested on: fall armyworm larvae (Spodoptera frugiperda); test: Spodoptera frugiperda spray test (maize leaf sections); settings: 168 h
Outline: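 Percent kill of Spodoptera frugiperda larvae was recorded 7 days after infesting dried, treated maize leaf sections. Spray solutions were made from an acetone/DMF compound preparation diluted with 1000 ppm emulsifier-containing water.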

[8] = tested on: green peach aphid (Myzus persicae); test: Myzus persicae spray test; settings: foliar, 120 h, 100 g/ha, after 5 days, Chinese cabbage leaf disks
Experimental: Solvent: 78.0 parts by weight acetone • 1.5 parts by weight dimethylformamide
Emulsifier: alkylarylpolyglycol ether
as §1, with “solvents” for “solvent”, “water.” for “water. Ammonium salt and/or penetration enhancer in a dosage of 1000 ppm are added to the desired concentration if necessary.”
Chinese cabbage (Brassica pekinensis) leaf disks infected with all instars of the green peach aphid (Myzus persicae), are sprayed with a preparation of the active ingredient of the desired concentration.
After 5 days mortality in % is determined. 100% means all aphids have been killed and 0% means none of the aphids have been killed.

[9] = tested on: brown planthopper (Nilaparvata lugens); test: Nilaparvata lugens spray test; settings: in Oryza sativa, 96 h
Outline: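 Rice plants (Oryza sativa) sprayed with compound in acetone/DMF diluted in water containing 1000 ppm alkylarylpolyglycol ether emulsifier, then infested with planthoppers. Mortality % scored after 4 days (100% = all killed, 0% = none killed).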

[10] = tested on: southern root-knot nematode (Meloidogyne incognita); test: Meloidogyne incognita test; settings: 336 h, after 14 days, read-out: nematicidal activity (gall formation)
Experimental: Solvent: 125.0 parts by weight of acetone
To produce a suitable preparation of active compound, 1 part by weight of active compound is mixed with the stated amount of solvent, and the concentrate is diluted with water to the desired concentration.
Vessels are filled with sand, a solution of the active ingredient, a suspension containing eggs and larvae of the southern root-knot nematode (Meloidogyne incognita) and salad seeds. The salad seeds germinate and the seedlings grow. Galls develop in the roots.
After 14 days the nematicidal activity is determined on the basis of the percentage of gall formation. 100% means no galls were found and 0% means the number of galls found on the roots of the treated plants was equal to that in untreated control plants.

[11] = tested on: adult unfed cat fleas (Ctenocephalides felis); test: Ctenocephalides felis oral test; settings: 48 h, 100 ppm in cattle blood, after 2 days
Outline: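 Percent flea mortality recorded at 2 days. Compound was dissolved in dimethyl sulfoxide and diluted into cattle blood, which ~20 unfed adult cat fleas ingested through parafilm from a 37°C-heated chamber, their own chamber kept at room temperature.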

[12] = tested on: adult engorged female ticks (Rhipicephalus microplus); test: Rhipicephalus (Boophilus) microplus injection test; settings: 168 h, egg deposition after 7 days, read-out: efficacy (infertile eggs); for pest or weed control at 0.004 mg: 4 μg/animal; for pest or weed control at 0.02 mg: 20 μg/animal
Outline: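 Efficacy is the share of infertile eggs: 100% means none are fertile, 0% means all are fertile. Egg deposition was checked 7 days after injecting 1 μL of DMSO-diluted compound into the abdomen of five engorged female R. microplus, with doubtful eggs kept about 42 days to hatching. The stock was 10 mg in 0.5 mL DMSO.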

[13] = tested on: green peach aphid (Myzus persicae); test: Myzus persicae oral test; settings: 120 h
Outline: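 Five-day oral feeding assay measuring percent mortality of a mixed aphid population that draws compound-containing sugared IPL41 medium through sealing parafilm; the test preparation derives from 1 part compound per 100 parts acetone, diluted with water.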

| SMILES | mortality at 20 ppm [1] | pest or weed control at 5 µg/cm2 [2] | pest or weed control at 5 µg/cm2 [3] | pest or weed control at 32 µg/disc, 100 g/ha [4] | mortality at 500 g/ha [5] | pest or weed control at 1 µg/cm2, 100 g/ha [6] | pest or weed control at 5 µg/cm2, 500 g/ha [6] | mortality at 100 g/ha [7] | mortality at 100 g/ha [8] | mortality at 500 g/ha [9] | pest or weed control at 20 ppm [10] | mortality at 100 ppm [11] | pest or weed control at 0.004 mg [12] | mortality at 100 g/ha [5] | mortality at 4 ppm [13] | pest or weed control at 0.02 mg [12] | pest or weed control at 160 µg/disc, 500 g/ha [4] | mortality at 500 g/ha [7] |
| --- | --- | --- | --- | --- | --- | --- | --- | --- | --- | --- | --- | --- | --- | --- | --- | --- | --- | --- |
| CNc1nc([C@H](C)NC(=O)c2cc(Cl)cc(OC(F)(F)F)c2)n(-c2ncccn2)n1 [I-129] | 100% | 100% | 100% | 100% | 100% | 80% | 80% | 100% | 90% | 90% | – | – | – | – | – | – | – | – |
| C[C@H](NC(=O)c1cc(Br)cc(OC(F)(F)F)c1)c1nc(N2CCOCC2)nn1-c1ncccn1 [I-147] | – | – | 100% | 100% | – | – | – | – | – | – | 100% | – | – | – | – | – | – | – |
| CC(NC(=O)c1cc(OC(F)(F)F)cc(C2CC2)c1)c1nc(N)nn1-c1ncccn1 (stereo not shown) [I-097] | 100% | 90% | 90% | 100% | – | – | – | 100% | 100% | – | – | 100% | 100% | 100% | 100% | – | – | – |
| CNc1nc(C(C)NC(=O)c2cc(Br)cc(OC(F)(F)F)c2)n(-c2ncccn2)n1 (stereo not shown) [I-103] | 100% | 100% | 100% | 100% | – | 100% | 100% | 100% | 90% | – | – | 100% | 100% | 100% | 100% | – | – | – |
| CC(NC(=O)c1cc(Cl)cc(Cl)c1)c1nc(-c2ncccn2)nn1-c1ncccn1 (stereo not shown) [I-054] | – | – | – | – | – | – | – | – | – | – | 90% | 100% | – | – | 90% | 100% | – | – |
| CON(C)c1nc([C@H](C)NC(=O)c2cc(OC(F)(F)F)cc(C3CC3)c2)n(-c2ncccn2)n1 [I-152] | 100% | – | – | 100% | 100% | – | – | 100% | 90% | 100% | – | – | – | – | – | – | – | – |
| C[C@H](NC(=O)c1cc(Br)cc(Br)c1)c1nc(N(C)C)nn1-c1ncccn1 [I-140] | 100% | 100% | 100% | 100% | 90% | 100% | 100% | 100% | 90% | 90% | – | – | – | – | – | – | – | – |
| CNc1nc(C(C)NC(=O)c2cc(Br)cc(C(F)(F)F)c2)n(-c2ncccn2)n1 (stereo not shown) [I-092] | 80% | 100% | 100% | 100% | – | 100% | 100% | 100% | 90% | – | – | 100% | 100% | 100% | 100% | – | – | – |
| CC(NC(=O)c1cc(Cl)cc(S(C)(=O)=O)c1)c1nc([S+]([O-])CC(F)(F)F)nn1-c1ccc(Cl)cn1 (stereo not shown) [I-066] | – | – | – | – | – | – | – | – | – | – | 90% | 100% | 100% | – | – | 100% | – | – |
| C[C@H](NC(=O)c1cc(OC(F)(F)F)cc(C2CC2)c1)c1nc(N2CCOCC2)nn1-c1ncccn1 [I-146] | – | – | 90% | 100% | 100% | – | – | 100% | – | – | 100% | – | – | – | – | – | – | – |
| CNc1nc(C(C)NC(=O)c2cc(OC(F)(F)F)cc(C3CC3)c2)n(-c2ncccn2)n1 (stereo not shown) [I-101] | 100% | 100% | 100% | 100% | – | 100% | 100% | 100% | 90% | – | – | 100% | 100% | – | 100% | – | – | – |
| CC(NC(=O)c1cc(Cl)cc(C(F)(F)F)c1)c1nc(-c2ncccn2)nn1-c1ncccn1 (stereo not shown) [I-055] | – | – | – | – | 100% | – | – | – | – | – | 90% | 100% | – | 100% | – | 100% | 100% | – |
| CC(NC(=O)c1cc(Cl)cc(OC(F)(F)F)c1)c1nc(-c2ncccn2)nn1-c1ncccn1 (stereo not shown) [I-051] | – | – | – | – | 100% | – | – | – | – | – | 100% | 100% | 100% | 100% | 100% | 100% | 100% | 100% |
| C[C@H](NC(=O)c1cc(Cl)cc(C(C)(C)C#N)c1)c1nc(N)nn1-c1ccc(C#N)cn1 [I-155] | 100% | 100% | 100% | 100% | 100% | 100% | 100% | 100% | 100% | 100% | – | – | – | – | – | – | – | – |
